Measured values from patent US20150080438A1, “6,7-Dihydro-5H-benzo[7]annulene derivatives, processes for their preparation, pharmaceutical products comprising them and their use for preparing medicaments” (Bayer Intellectual Property GmbH, priority 2011, published 2015).
Structures can show the parent of a compound that is named as a salt.

Tests used:
[1] = tested on: uterus growth induced by 17β-estradiol; assay: Anti-uterus growth test in the adult rat; assay type: in vivo; details: ovariectomized adult rat, percentage inhibition of uterus growth; for Anti-oestrogenic activity in vivo in % at a dose of 1 mg/kg (rat): 1 mg/kg s.c. d1-d3 with 1.5 μg/kg/day 17β-estradiol; for inhibition in vivo at 0.3 mg/kg: sc, 0.3 mg/kg s.c. d1-d3 with 1.5 μg/kg/day 17β-estradiol, read-out: Anti-oestrogenic activity in vivo in % at a dose of 0.3 mg/kg (rat)
From the text: The uterus of oestrogen-substituted rats can be used as a test model for detecting a direct action of substances with anti-oestrogenic properties. The parameter of oestrogenic action is estradiol-induced uterus growth in rats, which is inhibited by simultaneous administration of a substance with anti-oestrogenic action. The experimental animals (n=5-6 animals/group) were ovariectomized before the start of the test, to rule out the influence of endogenous oestrogens. After a phase of 6 to 10 days, the test substances are administered s.c. on 3 consecutive days (d1-d3) in combination with a substitution dose of 1.5 μg/kg/day of 17β-estradiol. 17β-estradiol alone serves as positive control, and the excipients serve as negative control. On day 4 (d4) the animals are killed, and the uteri and vaginae are removed and weighed. The organ weights are converted to mg/100 g body weight, then the mean value and the standard deviation are calculated for each dosage. The inhibition of uterus or vaginal growth induced by 17β-estradiol is shown as percentage inhibition. The selected claimed substances were investigated in adult female rats as described for their anti-oestrogenic, inhibitory action on the weight of the uterus. At the dosage used, the substances show a marked anti-oestrogenic action in vivo (Table 3 and Table 4).

[2] = tested on: ovarian estradiol synthesis; assay: Stimulation of ovarian oestrogen synthesis (HPG axis) in hormonally intact adult rats; assay type: in vivo, rat; details: 3 mg/kg daily for 10 days, quotient of peripheral estradiol values after and before treatment
From the text: The clinical use both of pure anti-oestrogens and of various SERMs for the treatment of premenopausal women is limited by their property of stimulating the ovaries through activation of the hypothalamic-pituitary-gonadal axis (HPG axis), which leads to the increase in peripheral estradiol levels (Palomba, S., Orio, F., Jr., Morelli, M., Russo, T., Pellicano, M., Zupi, E., Lombardi, G., Nappi, C., Panici, P. L., and Zullo, F. (2002). Raloxifene administration in premenopausal women with uterine leiomyomas: a pilot study. J Clin Endocrinol Metab 87, 3603-3608). This stimulation of the HPG axis is associated with penetration of the blood-brain barrier and penetration of the brain. To investigate the ovary-stimulating properties of the claimed pharmacological compounds, hormonally intact adult rats were treated with the substances daily for a period of 10 days. The study end point is the quotient of peripheral estradiol values after and before treatment.
Selected claimed pharmacological substances were investigated as described for their stimulating action on the HPG axis or ovarian estradiol synthesis. The selected substances show markedly less stimulation of the ovaries than the control compound raloxifene at equal dosages (cf. Table 5).

oestrogen receptor (ER) = biological target: T1, oestrogen receptor (ER) (Homo sapiens, UniProt P03372); assay: Anti-oestrogenic action in MVLN cells (inhibition of estradiol-induced luciferase, transactivation antagonism); assay type: cell-based; details: inhibition of estradiol-induced luciferase activity, read-out: Anti-oestrogenic action in vitro: MVLN transactivation antagonism IC50
T1 construct: These MVLN cells express, along with the functional oestrogen receptor (ER), a reporter construct; endogenous in cells; host or cells: MVLN cells (MCF7 derivative with ER-responsive luciferase reporter)
T1 sequence (P03372 1-595): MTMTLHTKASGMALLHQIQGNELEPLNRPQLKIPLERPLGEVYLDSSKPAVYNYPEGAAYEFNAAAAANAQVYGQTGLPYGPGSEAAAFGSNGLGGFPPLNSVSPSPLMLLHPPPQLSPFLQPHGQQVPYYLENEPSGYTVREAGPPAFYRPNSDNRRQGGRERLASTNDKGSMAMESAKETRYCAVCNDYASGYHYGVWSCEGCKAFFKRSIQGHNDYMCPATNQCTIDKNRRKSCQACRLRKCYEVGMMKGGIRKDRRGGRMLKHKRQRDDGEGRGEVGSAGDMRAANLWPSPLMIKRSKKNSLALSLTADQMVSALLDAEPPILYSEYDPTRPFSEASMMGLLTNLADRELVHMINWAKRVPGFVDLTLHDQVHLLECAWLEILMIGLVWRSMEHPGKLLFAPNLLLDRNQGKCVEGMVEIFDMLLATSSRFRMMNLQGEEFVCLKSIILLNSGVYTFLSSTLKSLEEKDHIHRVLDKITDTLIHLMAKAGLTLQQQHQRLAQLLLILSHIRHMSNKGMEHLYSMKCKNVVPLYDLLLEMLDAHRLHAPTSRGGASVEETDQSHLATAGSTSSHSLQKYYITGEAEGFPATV
Procedure, shortened: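 MCF7-derived MVLN cells carrying an ER-driven luciferase reporter; test compounds applied with estradiol, and anti-oestrogenic action scored as inhibition of the estradiol-induced luciferase signal.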

CN(CCCCCC1=C(c2ccccc2)CCCc2cc(O)ccc21)CCC[S+]([O-])CCCC(F)(F)C(F)(F)F (racemic) [Example 2, 9-[5-(Methyl{3-[(RS)-(4,4,5,5,5-pentafluoropentyl)sulphinyl]propyl}amino)pentyl]-8-phenyl-6,7-dihydro-5H-benzo[7]annulen-3-ol]
Anti-oestrogenic activity in vivo in % at a dose of 1 mg/kg (rat) [1]: 94%
inhibition in vivo at 0.3 mg/kg [1]: 51%
Stimulation of ovarian oestrogen synthesis: factor at a dose of 3 mg/kg rat [2]: 1.8
IC50 (oestrogen receptor (ER)): 8 nM

CN(CCCCCC1=C(c2ccccc2)CCCc2cc(O)ccc21)CCCSCCCC(F)(F)C(F)(F)F [Example 1, 9-[5-(Methyl{3-[(4,4,5,5,5-pentafluoropentyl)sulphanyl]propyl}amino)pentyl]-8-phenyl-6,7-dihydro-5H-benzo[7]annulen-3-ol]
Anti-oestrogenic activity in vivo in % at a dose of 1 mg/kg (rat) [1]: 65%
IC50 (oestrogen receptor (ER)): 37 nM

CN(CCCCCC1=C(c2ccccc2)CCCc2cc(O)ccc21)CCCS(=O)(=O)CCCC(F)(F)C(F)(F)F [Example 3, 9-[5-(Methyl{3-[(4,4,5,5,5-pentafluoropentyl)sulphonyl]propyl}amino)pentyl]-8-phenyl-6,7-dihydro-5H-benzo[7]annulen-3-ol]
Anti-oestrogenic activity in vivo in % at a dose of 1 mg/kg (rat) [1]: 64%
IC50 (oestrogen receptor (ER)): 15 nM

CN(CCCCCC1=C(c2cccc(O)c2)CCCc2cc(O)ccc21)CCCCS(=O)(=O)CCCC(F)(F)C(F)(F)F [Example 7, 8-(3-Hydroxyphenyl)-9-[5-(methyl{4-[(4,4,5,5,5-pentafluoropentyl)sulphonyl]butyl}amino)pentyl]-6,7-dihydro-5H-benzo[7]annulen-3-ol]
inhibition in vivo at 0.3 mg/kg [1]: 31%
Stimulation of ovarian oestrogen synthesis: factor at a dose of 3 mg/kg rat [2]: 1.8
IC50 (oestrogen receptor (ER)): 5 nM

CN(CCCCCCC1=C(c2cccc(O)c2)CCCc2cc(O)ccc21)CCCS(=O)(=O)CCCC(F)(F)C(F)(F)F [Example 13, 8-(3-Hydroxyphenyl)-9-[6-(methyl{3-[(4,4,5,5,5-pentafluoropentyl)sulphonyl]propyl}amino)hexyl]-6,7-dihydro-5H-benzo[7]annulen-3-ol]
inhibition in vivo at 0.3 mg/kg [1]: 79%
IC50 (oestrogen receptor (ER)): 3 nM

CN(CCCCCCC1=C(c2cccc(O)c2)CCCc2cc(O)ccc21)CCCCCCS(=O)(=O)CCCC(F)(F)C(F)(F)F [Example 19, 8-(3-Hydroxyphenyl)-9-[6-(methyl{6-[(4,4,5,5,5-pentafluoropentyl)sulphonyl]hexyl}amino)hexyl]-6,7-dihydro-5H-benzo[7]annulen-3-ol]
inhibition in vivo at 0.3 mg/kg [1]: 38%
IC50 (oestrogen receptor (ER)): 5 nM

CN(CCCCCCC1=C(c2cc(O)ccc2F)CCCc2cc(O)ccc21)CCCS(=O)(=O)CCCC(F)(F)C(F)(F)F [Example 23, 8-(2-Fluoro-5-hydroxyphenyl)-9-[6-(methyl{3-[(4,4,5,5,5-pentafluoropentyl)sulphonyl]propyl}amino)hexyl]-6,7-dihydro-5H-benzo[7]annulen-3-ol]
inhibition in vivo at 0.3 mg/kg [1]: 77%
IC50 (oestrogen receptor (ER)): 2 nM

CN(CCCCCCC1=C(c2ccc(F)c(O)c2)CCCc2c1ccc(O)c2Cl)CCCS(=O)(=O)CCCC(F)(F)C(F)(F)F [Example 24, 4-Chloro-8-(4-fluoro-3-hydroxyphenyl)-9-[6-(methyl{3-[(4,4,5,5,5-pentafluoropentyl)sulphonyl]propyl}amino)hexyl]-6,7-dihydro-5H-benzo[7]annulen-3-ol]
inhibition in vivo at 0.3 mg/kg [1]: 14%
IC50 (oestrogen receptor (ER)): 13 nM

CN(CCCCCCC1=C(c2ccc(O)cc2)CCCc2cc(O)ccc21)CCCS(=O)(=O)CCCC(F)(F)C(F)(F)F [Example 27, 8-(4-Hydroxyphenyl)-9-[6-(methyl{3-[(4,4,5,5,5-pentafluoropentyl)sulphonyl]propyl}amino)hexyl]-6,7-dihydro-5H-benzo[7]annulen-3-ol]
inhibition in vivo at 0.3 mg/kg [1]: 80%
Stimulation of ovarian oestrogen synthesis: factor at a dose of 3 mg/kg rat [2]: 2.4
IC50 (oestrogen receptor (ER)): 1 nM

CN(CCCCCCC1=C(c2ccc(F)c(O)c2)CCCc2cc(O)ccc21)CCCS(=O)(=O)CCCC(F)(F)C(F)(F)F [Example 29, 8-(4-Fluoro-3-hydroxyphenyl)-9-[6-(methyl{3-[(4,4,5,5,5-pentafluoropentyl)sulphonyl]propyl}amino)hexyl]-6,7-dihydro-5H-benzo[7]annulen-3-ol]
inhibition in vivo at 0.3 mg/kg [1]: 61%
Stimulation of ovarian oestrogen synthesis: factor at a dose of 3 mg/kg rat [2]: 1.1
IC50 (oestrogen receptor (ER)): 3 nM

CN(CCCCCC1=C(c2ccc(O)c(F)c2)CCCc2cc(O)ccc21)CCCS(=O)(=O)CCCC(F)(F)C(F)(F)F [Example 38, 8-(3-Fluoro-4-hydroxyphenyl)-9-[5-(methyl{3-[(4,4,5,5,5-pentafluoropentyl)sulphonyl]propyl}amino)pentyl]-6,7-dihydro-5H-benzo[7]annulen-3-ol]
inhibition in vivo at 0.3 mg/kg [1]: 57%
Stimulation of ovarian oestrogen synthesis: factor at a dose of 3 mg/kg rat [2]: 1.7
IC50 (oestrogen receptor (ER)): 2 nM

CN(CCCCCCC1=C(c2cccnc2)CCCc2cc(O)ccc21)CCCS(=O)(=O)CCCC(F)(F)C(F)(F)F [Example 44, 9-[6-(Methyl{3-[(4,4,5,5,5-pentafluoropentyl)sulphonyl]propyl}amino)hexyl]-8-(3-pyridyl)-6,7-dihydro-5H-benzo[7]annulen-3-ol]
inhibition in vivo at 0.3 mg/kg [1]: 32%
IC50 (oestrogen receptor (ER)): 7 nM

CN(CCCCCCC1=C(c2ccc(S(C)(=O)=O)cc2)CCCc2cc(O)ccc21)CCCS(=O)(=O)CCCC(F)(F)C(F)(F)F [Example 49, 8-(4-Mesylphenyl)-9-[6-(methyl{3-[(4,4,5,5,5-pentafluoropentyl)sulphonyl]propyl}amino)hexyl]-6,7-dihydro-5H-benzo[7]annulen-3-ol]
inhibition in vivo at 0.3 mg/kg [1]: 72%
IC50 (oestrogen receptor (ER)): 3 nM

CN(CCCCCCC1=C(c2cccc(O)c2)CCCc2cc(O)ccc21)CCCS(=O)(=O)CCCC(F)(F)F [Example 51, 8-(3-Hydroxyphenyl)-9-[6-(methyl{3-[(4,4,4-trifluorobutyl)sulphonyl]propyl}amino)hexyl]-6,7-dihydro-5H-benzo[7]annulen-3-ol]
inhibition in vivo at 0.3 mg/kg [1]: 62%
IC50 (oestrogen receptor (ER)): 2 nM

CN(CCCCCCC1=C(c2cccc(O)c2)CCCc2cc(O)ccc21)CCCS(=O)(=O)CCC(F)(F)F [Example 56, 8-(3-Hydroxyphenyl)-9-[6-(methyl{3-[(3,3,3-trifluoropropyl)sulphonyl]propyl}amino)hexyl]-6,7-dihydro-5H-benzo[7]annulen-3-ol]
inhibition in vivo at 0.3 mg/kg [1]: 33%
IC50 (oestrogen receptor (ER)): 3 nM

CN(CCCCCCC1=C(c2ccccc2)CCCc2cc(O)ccc21)CCCCS(=O)(=O)CCCC(F)(F)F [Example 58, 9-[6-(Methyl{4-[(4,4,4-trifluorobutyl)sulphonyl]butyl}amino)hexyl]-8-phenyl-6,7-dihydro-5H-benzo[7]annulen-3-ol]
inhibition in vivo at 0.3 mg/kg [1]: 88%
IC50 (oestrogen receptor (ER)): 3 nM

CN(CCCCCCC1=C(c2ccccc2)CCCc2c1ccc(O)c2Cl)CCCS(=O)(=O)CCCC(F)(F)C(F)(F)F [Example 102, 4-Chloro-9-[6-(methyl{3-[(4,4,5,5,5-pentafluoropentyl)sulphonyl]propyl}amino)hexyl]-8-phenyl-6,7-dihydro-5H-benzo[7]annulen-3-ol]
inhibition in vivo at 0.3 mg/kg [1]: 24%
IC50 (oestrogen receptor (ER)): 32 nM

O=C(c1ccc(OCCN2CCCCC2)cc1)c1c(-c2ccc(O)cc2)sc2cc(O)ccc12 [raloxifene hydrochloride, raloxifene, reference compound]
Stimulation of ovarian oestrogen synthesis: factor at a dose of 3 mg/kg rat [2]: 3.1
